The values below come from PubChem BioAssay AID330 (DTP/NCI, 2004).

Structures are written as SMILES. Inconclusive results and toxic doses are left out.

The subject of this assay is P388 leukemia ip, CD2F1 mice, survival T/C. Nature of the assay: NCI In Vivo Anticancer Drug Screen. Data for tumor model P388 Leukemia (intraperitoneal) in CD2F1 (CDF1) mice. The note with it: endpoint: median survival time, higher = longer survival. An outline of the steps:
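Mice carrying the transplanted tumor received test compound or vehicle. Survival was recorded in each group, and the value is the treated-group measurement divided by that of the vehicle-treated control group.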

Where [1] appears, read: dose: 50.0 mg/kg/injection, schedule: Q01DX005 (ip), vehicle: saline with Tween-80.
[2] abbreviates: dose: 100.0 mg/kg/injection, schedule: Q01DX005 (ip), vehicle: saline with Tween-80.
[3] abbreviates: dose: 200.0 mg/kg/injection, schedule: Q01DX005 (ip), vehicle: saline with Tween-80.
[4] abbreviates: dose: 50.0 mg/kg/injection, schedule: Q01DX009 (ip), vehicle: saline with Tween-80.
[5] abbreviates: dose: 100.0 mg/kg/injection, schedule: Q01DX009 (ip), vehicle: saline with Tween-80.
Setting [6] is: dose: 200.0 mg/kg/injection, schedule: Q01DX009 (ip), vehicle: saline with Tween-80.
Where [7] appears, read: dose: 120.0 mg/kg/injection, schedule: Q01DX005 (ip), vehicle: saline with Tween-80.
The mark [8] stands for this setting: dose: 50.0 mg/kg/injection, schedule: Q01DX005 (ip), vehicle: Klucel (hydroxypropylcellulose) (HPC).
[9] abbreviates: dose: 100.0 mg/kg/injection, schedule: Q01DX005 (ip), vehicle: Klucel (hydroxypropylcellulose) (HPC).

Regarding `CCN(CC)CCOc1ccc(C(O)(Cc2ccc(OC)cc2)c2ccccc2)cc1` (stereo not drawn), the T/C by setting is: under setting [1], 101 % of control; under setting [2], 92 % of control; under setting [3], 92 % of control.

As to `O=S(=O)(NC(Cc1nc2ccccc2[nH]1)c1nc2ccccc2[nH]1)c1ccccc1` (stereo not drawn), the T/C was 95 % of control under setting [4], 89 % of control under setting [5] and 93 % of control under setting [6].

On to `O=C1C2=C(Nc3ccccc3N2)OC1c1ccncc1` (stereo not drawn), for which the T/C was 93 % of control (dose: 60.0 mg/kg/injection, schedule: Q01DX005 (ip), vehicle: Klucel (hydroxypropylcellulose) (HPC)); 93 % of control (dose: 120.0 mg/kg/injection, schedule: Q01DX005 (ip), vehicle: Klucel (hydroxypropylcellulose) (HPC)); 88 % of control (dose: 240.0 mg/kg/injection, schedule: Q01DX005 (ip), vehicle: Klucel (hydroxypropylcellulose) (HPC)).

Take `CC(=O)c1ccc(N=C(C#N)C2=C(O)c3ccccc3C2=O)cc1`: the T/C (dose: 60.0 mg/kg/injection, schedule: Q01DX005 (ip), vehicle: saline with Tween-80) was 115 % of control and the T/C under setting [7] is 120 % of control.

As for `CC(C)(O)c1ccccc1Br`, the T/C (dose: 50.0 mg/kg/injection, schedule: Q01DX009 (ip), vehicle: Klucel (hydroxypropylcellulose) (HPC)) was 98 % of control; the T/C (dose: 100.0 mg/kg/injection, schedule: Q01DX009 (ip), vehicle: Klucel (hydroxypropylcellulose) (HPC)) is 99 % of control; the T/C (dose: 200.0 mg/kg/injection, schedule: Q01DX009 (ip), vehicle: Klucel (hydroxypropylcellulose) (HPC)) was 102 % of control.

`O=S(=O)(Nc1nccs1)c1ccc(Nc2c3ccc(Cl)cc3nc3ncccc23)cc1`: the T/C reads like this: under setting [1], 105 % of control; under setting [2], 102 % of control; under setting [3], 98 % of control.

With `COc1cc(-c2cc(O)c(-c3ccc4ccccc4n3)c(=O)[nH]2)cc(OC)c1OC`, the T/C (dose: 0.93 mg/kg/injection, schedule: Q01DX005 (ip), vehicle: saline with Tween-80) was 102 % of control; the T/C (dose: 1.88 mg/kg/injection, schedule: Q01DX005 (ip), vehicle: saline with Tween-80) was 98 % of control; the T/C (dose: 3.75 mg/kg/injection, schedule: Q01DX005 (ip), vehicle: saline with Tween-80) is 96 % of control; the T/C under setting [7] is 87 % of control; the T/C (dose: 240.0 mg/kg/injection, schedule: Q01DX005 (ip), vehicle: saline with Tween-80) is 90 % of control.

Take `O=[N+]([O-])c1ccc2c(Cl)c3ccccc3nc2c1`: the T/C reads like this: under setting [4], 95 % of control; under setting [5], 103 % of control; under setting [6], 94 % of control.

On to `CCOC1=Cc2c(oc3c(C(C)(C)C)cc(OCC)cc23)OC(C(C)(C)C)=C1`, for which the T/C was 103 % of control (dose: 3.12 mg/kg/injection, schedule: Q01DX009 (ip), vehicle: saline with Tween-80); 92 % of control (dose: 6.25 mg/kg/injection, schedule: Q01DX009 (ip), vehicle: saline with Tween-80); 100 % of control (dose: 12.5 mg/kg/injection, schedule: Q01DX009 (ip), vehicle: saline with Tween-80); 100 % of control (dose: 25.0 mg/kg/injection, schedule: Q01DX009 (ip), vehicle: saline with Tween-80).

`C(=C\c1cc2ccc(C3=NCCN3)cc2o1)/c1cc2ccc(C3=NCCN3)cc2o1`: the T/C runs as follows: (dose: 12.5 mg/kg/injection, schedule: Q04DX003 (ip), vehicle: suspension in saline) 107 % of control; (dose: 25.0 mg/kg/injection, schedule: Q04DX003 (ip), vehicle: suspension in saline) 114 % of control; (dose: 50.0 mg/kg/injection, schedule: Q04DX003 (ip), vehicle: suspension in saline) 106 % of control; (dose: 100.0 mg/kg/injection, schedule: Q04DX003 (ip), vehicle: suspension in saline) 122 % of control.

With `CCN(CC)Cc1cc(C(=O)CC(c2ccccc2)S(=O)(=O)c2ccc(C)cc2)ccc1O` (stereo not drawn), the T/C by setting is: (dose: 1.56 mg/kg/injection, schedule: Q01DX009 (ip), vehicle: saline) 100 % of control; (dose: 3.12 mg/kg/injection, schedule: Q01DX009 (ip), vehicle: saline) 94 % of control; (dose: 6.25 mg/kg/injection, schedule: Q01DX009 (ip), vehicle: saline) 97 % of control; (dose: 50.0 mg/kg/injection, schedule: Q01DX009 (ip), vehicle: saline) 90 % of control.

As to `Nc1n[n+](C2CCCCC2)no1`, the T/C runs as follows: (dose: 3.13 mg/kg/injection, schedule: Q01DX009 (ip), vehicle: water) 111 % of control; (dose: 6.25 mg/kg/injection, schedule: Q01DX009 (ip), vehicle: water) 98 % of control; (dose: 12.5 mg/kg/injection, schedule: Q01DX009 (ip), vehicle: water) 101 % of control.

As for `CCOC(=O)C1=S=C(SC)N(C)C1=O`, the T/C was 107 % of control under setting [4] and 107 % of control under setting [5].

As for `CCCC[C@H]1C(=O)O[C@H](C)[C@H](NC(=O)c2cccc(NC=O)c2O)C(=O)O[C@@H](C)[C@@H]1OC(=O)CC(C)C`, the T/C (dose: 0.12 mg/kg/injection, schedule: Q01DX009 (ip), vehicle: Klucel (hydroxypropylcellulose) (HPC)) was 105 % of control; the T/C (dose: 0.25 mg/kg/injection, schedule: Q01DX009 (ip), vehicle: Klucel (hydroxypropylcellulose) (HPC)) is 105 % of control; the T/C (dose: 0.5 mg/kg/injection, schedule: Q01DX009 (ip), vehicle: Klucel (hydroxypropylcellulose) (HPC)) is 109 % of control; the T/C (dose: 1.0 mg/kg/injection, schedule: Q01DX009 (ip), vehicle: Klucel (hydroxypropylcellulose) (HPC)) was 119 % of control.

`CCOC(=O)COc1cc2c(cc1C(CC)c1ccccc1)OCO2` (stereo not drawn): the T/C reads like this: under setting [8], 97 % of control; under setting [9], 102 % of control; (dose: 200.0 mg/kg/injection, schedule: Q01DX005 (ip), vehicle: Klucel (hydroxypropylcellulose) (HPC)) 102 % of control.

Turning to `C=CC(=O)N(C)c1nc(N(C)C)nc(N(C)C)n1`, the T/C reads like this: under setting [8], 102 % of control; under setting [9], 108 % of control.

For the molecule `C=C1C(=O)OC2/C=C(\C)C(O)CCC(C)(O)CC(OC(=O)/C(C)=C/C)C12` (stereo not drawn), the T/C was 104 % of control (dose: 7.5 mg/kg/injection, schedule: Q01DX009 (ip), vehicle: saline with Tween-80); 98 % of control (dose: 15.0 mg/kg/injection, schedule: Q01DX009 (ip), vehicle: saline with Tween-80); 104 % of control (dose: 30.0 mg/kg/injection, schedule: Q01DX009 (ip), vehicle: saline with Tween-80); 108 % of control (dose: 60.0 mg/kg/injection, schedule: Q01DX009 (ip), vehicle: saline with Tween-80).

In the case of `CCOC(=O)C(CSC(c1ccccc1)(c1ccccc1)c1ccccc1)NC(=O)c1csc(CCNC(=O)c2ccccc2)n1` (stereo not drawn), the T/C reads like this: (dose: 4.0 mg/kg/injection, schedule: Q01DX009 (ip), vehicle: other) 100 % of control; (dose: 8.0 mg/kg/injection, schedule: Q01DX009 (ip), vehicle: other) 99 % of control; (dose: 16.0 mg/kg/injection, schedule: Q01DX009 (ip), vehicle: other) 91 % of control; (dose: 32.0 mg/kg/injection, schedule: Q01DX009 (ip), vehicle: other) 89 % of control; (dose: 62.5 mg/kg/injection, schedule: Q01DX009 (ip), vehicle: other) 113 % of control; (dose: 64.0 mg/kg/injection, schedule: Q01DX009 (ip), vehicle: other) 89 % of control. In addition, the T/C by setting is: (dose: 125.0 mg/kg/injection, schedule: Q01DX009 (ip), vehicle: other) 108 % of control; (dose: 250.0 mg/kg/injection, schedule: Q01DX009 (ip), vehicle: other) 108 % of control.

For the molecule `CC12CC(C(O)(C(F)(F)F)C(F)(F)F)C(=O)C=C1CCC1C2CCC2(C)C(C(=O)CC(O)(C(F)(F)F)C(F)(F)F)CCC12` (stereo not drawn), the T/C runs as follows: (dose: 75.0 mg/kg/injection, schedule: Q01DX001 (sc), vehicle: steriod suspending solution) 104 % of control; (dose: 150.0 mg/kg/injection, schedule: Q01DX001 (sc), vehicle: steriod suspending solution) 122 % of control; (dose: 300.0 mg/kg/injection, schedule: Q01DX001 (sc), vehicle: steriod suspending solution) 100 % of control.

In the case of `O=C(O)C(=O)O.O=C([O-])C(=O)[O-].O=C([O-])C(=O)[O-].[NH-]CC[NH-].[NH-]CC[NH-].[NH-]CC[NH-].[Ru+4].[Ru+5]`, the T/C reads like this: (dose: 25.0 mg/kg/injection, schedule: Q04DX003 (ip), vehicle: water) 117 % of control; (dose: 50.0 mg/kg/injection, schedule: Q04DX003 (ip), vehicle: water) 151 % of control.
